Data taken from paper PMC9320114 (Molecules, 2022).

Tests used:
hMAO-A = biological target: T1, hMAO-A (Homo sapiens, UniProt P21397); assay: Inhibition of hMAO-A, fluorimetric Amplex Red assay; format: biochemical; details: residual activity at 10 µM; for remaining activity at 10 µM: read-out: hMAO-A RA (%)
T1 construct: purchased Sigma Aldrich; host or cells: BTI-TN-5B1-4 baculovirus-infected insect cells
T1 sequence (P21397 1-527): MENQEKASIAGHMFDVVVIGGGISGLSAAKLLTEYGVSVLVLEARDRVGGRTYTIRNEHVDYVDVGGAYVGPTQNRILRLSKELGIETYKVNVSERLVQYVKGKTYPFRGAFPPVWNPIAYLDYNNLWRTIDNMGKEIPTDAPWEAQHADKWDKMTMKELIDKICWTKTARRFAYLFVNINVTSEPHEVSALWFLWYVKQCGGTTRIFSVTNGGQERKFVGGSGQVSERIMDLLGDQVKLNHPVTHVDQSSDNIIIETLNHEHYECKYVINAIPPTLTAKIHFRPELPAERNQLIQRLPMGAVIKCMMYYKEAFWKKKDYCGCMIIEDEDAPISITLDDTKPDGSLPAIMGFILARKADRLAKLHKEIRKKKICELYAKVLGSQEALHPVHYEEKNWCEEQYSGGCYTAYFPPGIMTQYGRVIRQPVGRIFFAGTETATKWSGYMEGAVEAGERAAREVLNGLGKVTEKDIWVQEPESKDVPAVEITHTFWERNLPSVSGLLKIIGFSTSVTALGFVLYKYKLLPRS
Experimental: (§1) The effects of the compounds on hMAO-A and hMAO-B were investigated using a fluorimetric assay, following a method previously described in the literature. Recombinant human microsomal hMAO enzymes expressed in BTI-TN-5B1-4 baculovirus-infected insect cells, horseradish peroxidase (HRP, type II, lyophilized powder), and p-tyramine hydrochloride were purchased from Sigma Aldrich. 10-Acetyl-3,7-dihydroxyphenoxazine (Amplex Red reagent) was synthesized as described in the literature.
Briefly, 100 µL of 50 mM sodium phosphate buffer (pH 7.4, 0.05% (v/v) Triton X-114), containing the compounds and hMAO-A or hMAO-B, was incubated for 15 min at 37 °C in a flat-bottomed black 96-well microplate protected from ambient light. After preincubation, the reaction was started by adding final concentrations of 200 µM Amplex Red reagent, 2 U/mL HRP, and 1 mM p-tyramine hydrochloride. Resorufin production was quantified based on the fluorescence produced (λex = 530 nm; λem = 590 nm) at 37 °C over a 20 min period. For the control experiments, DMSO was used instead of appropriate dilutions of the compounds in DMSO. For the determination of blank (b), the enzyme solution was replaced by a phosphate-buffered solution. Initial velocities were calculated from the obtained trend, with each measurement performed in duplicate. Specific fluorescence emission to determine the final results was calculated after subtracting the blank activity (b). Inhibitory potencies were expressed as RAs, and IC50 values were calculated as described in the section “Inhibition of hBChE and mAChE” above.

hMAO-B = biological target: T2, hMAO-B (Homo sapiens, UniProt P27338); assay: biochemical; details: for hMAO-B RA [%] / remaining activity at 10 µM: residual activity at 10 µM; for remaining activity at 10 µM: read-out: hMAO-B RA (%); for IC50: IC50 ± SEM
T2 construct: purchased Sigma Aldrich; host or cells: BTI-TN-5B1-4 baculovirus-infected insect cells
T2 sequence (P27338 1-520): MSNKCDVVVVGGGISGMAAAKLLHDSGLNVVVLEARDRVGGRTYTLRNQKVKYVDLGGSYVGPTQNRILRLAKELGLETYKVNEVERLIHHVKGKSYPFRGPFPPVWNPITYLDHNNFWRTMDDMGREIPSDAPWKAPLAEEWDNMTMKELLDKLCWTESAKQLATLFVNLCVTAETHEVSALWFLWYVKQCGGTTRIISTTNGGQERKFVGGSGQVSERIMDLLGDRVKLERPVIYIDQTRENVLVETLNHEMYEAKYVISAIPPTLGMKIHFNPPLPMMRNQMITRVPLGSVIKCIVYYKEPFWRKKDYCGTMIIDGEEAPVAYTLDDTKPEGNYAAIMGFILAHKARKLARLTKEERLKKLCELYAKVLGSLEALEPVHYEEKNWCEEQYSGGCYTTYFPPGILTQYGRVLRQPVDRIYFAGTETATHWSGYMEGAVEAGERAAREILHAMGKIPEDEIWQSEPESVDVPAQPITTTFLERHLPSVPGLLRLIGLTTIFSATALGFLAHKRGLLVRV
Source text: as §1
After preincubation, the reaction was started by adding final concentrations of 200 µM Amplex Red reagent, 2 U/mL HRP, and 1 mM p-tyramine hydrochloride. Resorufin production was quantified based on the fluorescence produced (λex = 530 nm; λem = 590 nm) at 37 °C over a 20 min period. For the control experiments, DMSO was used instead of appropriate dilutions of the compounds in DMSO. For the determination of blank (b), the enzyme solution was replaced by a phosphate-buffered solution. Initial velocities were calculated from the obtained trend, with each measurement performed in duplicate. Specific fluorescence emission to determine the final results was calculated after subtracting the blank activity (b). Inhibitory potencies were expressed as RAs, and IC50 values were calculated as described in the section “Inhibition of hBChE and mAChE” above.

MurC = MurC (Escherichia coli, UniProt P17952); assay: Inhibition of MurC, colorimetric malachite green method; format: biochemical, bacterial; details: for remaining activity at 100 µM: 0.25 h, residual activity at 100 µM, read-out: MurC RA (%); for remaining activity at 100 µM / IC50: Table 2; for IC50: IC50 ± SEM, read-out: MurC IC50; for MurC inhibition (in words): assayed at 100 µM
Experimental: Inhibition of Mur enzymes was monitored with the colorimetric malachite green method, which measured orthophosphate formed during reaction. The mixtures with a final volume of 50 µL contained:
MurC: 50 mM HEPES-NaOH, pH 8.0, 5 mM MgCl2, 0.005% Triton X-114, 120 µM L-Ala, 120 µM UDP-N-acetyl-muramic acid, 450 µM ATP, purified MurC, and 50 or 100 µM of each compound tested.
All compounds were soluble in the assay mixtures containing 5% DMSO (v/v). After incubation for 15 min (20 min for DdlB) at 37 °C, the enzyme reaction was terminated by addition of Biomol® reagent (100 µL) and absorbance was measured after 5 min at 650 nm (Synergy™ H4 microplate reader; BioTek Instruments, Inc., BioTek Gen5 Data Analysis Software, version 2.9, Santa Clara, CA, USA). All experiments were performed in duplicate.

Chain of MurC (P17952 whole entry): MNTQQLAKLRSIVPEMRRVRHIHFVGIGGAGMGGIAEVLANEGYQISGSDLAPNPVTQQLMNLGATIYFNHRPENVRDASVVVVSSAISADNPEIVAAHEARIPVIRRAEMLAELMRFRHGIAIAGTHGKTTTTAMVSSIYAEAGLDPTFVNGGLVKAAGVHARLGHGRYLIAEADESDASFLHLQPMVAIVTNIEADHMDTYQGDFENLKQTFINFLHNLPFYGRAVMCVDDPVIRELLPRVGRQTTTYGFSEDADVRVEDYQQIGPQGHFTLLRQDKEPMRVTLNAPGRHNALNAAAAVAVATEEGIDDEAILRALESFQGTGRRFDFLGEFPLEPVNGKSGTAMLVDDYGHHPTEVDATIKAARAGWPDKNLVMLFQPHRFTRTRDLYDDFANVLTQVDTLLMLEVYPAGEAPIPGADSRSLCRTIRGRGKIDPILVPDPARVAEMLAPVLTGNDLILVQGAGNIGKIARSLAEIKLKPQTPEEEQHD

For `O=C(NCCc1ccc(Cl)cc1)c1cc(OCC2CCCN2c2ccnc3ncnn23)c2ccccc2n1` (stereo not drawn) [Compound S8], the “hMAO-A RA [%]” value (hMAO-A; Table S3) was 86% and the “hMAO-B RA [%]” value (hMAO-B; Table S3) was 104%.
With `CNC(=O)c1cc(Oc2ccc(NC(=O)Nc3ccc(Cl)c(C(F)(F)F)c3)cc2)ccn1` [Compound 29] the remaining activity at 10 µM (hMAO-A; Table 3) was 86% and the remaining activity at 10 µM (hMAO-B; Table 3) was 89%.
`CCCCc1nc2ccn(Cc3ccsc3)c(=O)c2n1Cc1ccc(-c2ccccc2-c2nnn[nH]2)cc1` [Compound 14] showed a remaining activity at 100 µM (MurC) of 26% and an IC50 (MurC) of 90 ± 13 µM.
For `CCCCc1nc2ccn(CC(=O)NC(C)(C)C)c(=O)c2n1Cc1ccc(-c2ccccc2S(=O)(=O)NC(=O)CCc2ccccc2)cc1F` [Compound 15], the remaining activity at 100 µM (MurC) was 59% and the “MurC inhibition (in words)” value (MurC) was “loss of MurC inhibition”.
For `O=C(OCC1CCCN1c1ccnc2ncnn12)c1cccc(OC(F)(F)F)c1` (stereo not drawn) [Compound S10], the “hMAO-A RA [%]” value (hMAO-A; Table S3) was 92% and the “hMAO-B RA [%]” value (hMAO-B; Table S3) was 81%.
For `O=C(OCC1CCCN1c1ccnc2ncnn12)c1ccccc1I` (stereo not drawn) [Compound S9], the “hMAO-A RA [%]” value (hMAO-A; Table S3) was 90% and the “hMAO-B RA [%]” value (hMAO-B; Table S3) was 93%.
Work on `Nc1ccc(NC(=O)Nc2cc(C(F)(F)F)ccc2-n2cncn2)cc1` [Compound 23] yielded a remaining activity at 10 µM (hMAO-A; Table 3) of 100%, an IC50 (hMAO-B; Table 3) of 3 ± 0.8 µM and a remaining activity at 10 µM (hMAO-B; Table 3) of 24%.
`CCCCc1nc2ccn(Cc3ccccc3-c3ccccc3)c(=O)c2n1Cc1ccc(-c2ccccc2-c2nnn[nH]2)cc1` [Compound 19] was tested, and the remaining activity at 100 µM (MurC) was 15% and the IC50 (MurC) was 75 ± 9 µM.
`CCCCc1nc2ccn(Cc3ccccc3Cl)c(=O)c2n1Cc1ccc(-c2ccccc2-c2nnn[nH]2)cc1` [Compound 11] gave a remaining activity at 100 µM (MurC) of 20% and an IC50 (MurC) of 77 ± 12 µM.
For `CCCCc1nc2ccn(CC(=O)C(C)(C)C)c(=O)c2n1Cc1ccc(-c2ccccc2-c2nnn[nH]2)cc1` [Compound 17], the remaining activity at 100 µM (MurC) was 75% and the “MurC inhibition (in words)” value (MurC) was “loss of MurC inhibition”.
For `CNC(=O)c1cc(Oc2ccc(NC(=O)Nc3cc(C(F)(F)F)ccc3-n3cncn3)cc2)ccn1` [Compound 21], the “hMAO-A RA [%]” value (hMAO-A; Table 3) was 92% and the “hMAO-B RA [%]” value (hMAO-B; Table 3) was 88%.
For `Nc1ncnc2c1ncn2-c1ccc(NC(=O)Nc2cc(C(F)(F)F)ccc2-n2cncn2)cc1` [Compound 22], the remaining activity at 10 µM (hMAO-A; Table 3) was 111%, the IC50 (hMAO-B; Table 3) was 0.71 ± 0.1 µM and the remaining activity at 10 µM (hMAO-B; Table 3) was 6%.
With `N#Cc1cccc(C(=O)OCC2CCCN2c2ccnc3ncnn23)c1` (stereo not drawn) [Compound S3] the “hMAO-A RA [%]” value (hMAO-A; Table S3) was 96% and the “hMAO-B RA [%]” value (hMAO-B; Table S3) was 91%.
`FC(F)(F)c1ccc2nccc(OCC3CCCN3c3ccnc4ncnn34)c2c1` (stereo not drawn) [Compound S1] was tested, and the “hMAO-A RA [%]” value (hMAO-A; Table S3) was 70% and the “hMAO-B RA [%]” value (hMAO-B; Table S3) was 75%.
In the case of `O=C(Nc1ccc(OCCN2CCCCC2)cc1)Nc1cc(C(F)(F)F)ccc1-n1cncn1` [Compound 28], the remaining activity at 10 µM (hMAO-A; Table 3) is reported as 94%, the IC50 (hMAO-B; Table 3) is reported as 2.6 ± 0.1 µM and the remaining activity at 10 µM (hMAO-B; Table 3) is reported as 15%.
In the case of `CNC(=O)c1cc(Oc2ccc(NC(=O)Nc3cc(C(F)(F)F)ccc3F)cc2)ccn1` [Compound 24], the remaining activity at 10 µM (hMAO-A; Table 3) is reported as 100% and the remaining activity at 10 µM (hMAO-B; Table 3) is reported as 100%.
`CCCCc1nc2ccn(Cc3ccccc3C(=O)OCC)c(=O)c2n1Cc1ccc(-c2ccccc2C#N)cc1` [Compound 18] gave a remaining activity at 100 µM (MurC) of 58%.
`CCCCc1nc2ccn(Cc3ccccc3F)c(=O)c2n1Cc1ccc(-c2ccccc2-c2nnn[nH]2)cc1` [Compound 10] was tested, and the remaining activity at 100 µM (MurC) was 30% and the IC50 (MurC) was 92 ± 11 µM.
With `CC(=O)N1CCc2cccc(OCC3CCCN3c3ccnc4ncnn34)c2C1` (stereo not drawn) [Compound S5] the “hMAO-A RA [%]” value (hMAO-A; Table S3) was 94% and the “hMAO-B RA [%]” value (hMAO-B; Table S3) was 98%.
With `c1cc(OCC2CCCN2c2ccnc3ncnn23)c2cccnc2c1` (stereo not drawn) [Compound S4] the “hMAO-A RA [%]” value (hMAO-A; Table S3) was 80% and the “hMAO-B RA [%]” value (hMAO-B; Table S3) was 99%.
With `CCOc1cccc(C(=O)OCC2CCCN2c2ccnc3ncnn23)c1` (stereo not drawn) [Compound S6] the “hMAO-A RA [%]” value (hMAO-A; Table S3) was 96% and the “hMAO-B RA [%]” value (hMAO-B; Table S3) was 88%.
`CN(C)CCOc1ccc(NC(=O)Nc2cc(C(F)(F)F)ccc2-n2cncn2)cc1` [Compound 27] was tested, and the remaining activity at 10 µM (hMAO-A; Table 3) was 117%, the IC50 (hMAO-B; Table 3) was 0.465 ± 0.042 µM and the remaining activity at 10 µM (hMAO-B; Table 3) was 6%.
In the case of `CCCCc1nc2ccn(Cc3ccccc3C(=O)O)c(=O)c2n1Cc1ccc(-c2ccccc2-c2nnn[nH]2)cc1` [Compound 13], the remaining activity at 100 µM (MurC) is reported as 34% and the IC50 (MurC) is reported as 109 ± 26 µM.
Compound `CNC(=O)c1cc(Oc2ccc(NC(=O)Nc3cc(C(F)(F)F)ccc3-n3cncn3)cc2)cc[n+]1[O-]` [Compound 26] has a remaining activity at 10 µM (hMAO-A; Table 3) of 89% and a remaining activity at 10 µM (hMAO-B; Table 3) of 98%.
`c1cc(OCC2CCCN2c2ccnc3ncnn23)c2ccncc2c1` (stereo not drawn) [Compound S2] was tested, and the “hMAO-A RA [%]” value (hMAO-A; Table S3) was 87% and the “hMAO-B RA [%]” value (hMAO-B; Table S3) was 88%.
`COc1ccc2c3c([nH]c2c1)C(C)=NCC3` [Harmaline, reference compound] was tested, and the remaining activity at 10 µM (hMAO-A; Table 3) was 0%.
`CCCCc1nc2ccn(Cc3ccccc3C(=O)OC)c(=O)c2n1Cc1ccc(-c2ccccc2-c2nnn[nH]2)cc1` [Compound 12] gave a remaining activity at 100 µM (MurC) of 27% and an IC50 (MurC) of 84 ± 15 µM.
`CCCCc1nc2ccn(CC(=O)N3CCCCC3)c(=O)c2n1Cc1ccc(-c2ccccc2S(=O)(=O)NC(=O)CCc2ccccc2)cc1F` [Compound 16] was tested, and the remaining activity at 100 µM (MurC) was 53%.
Compound `O=C(Nc1cc(C(F)(F)F)ccc1-n1cncn1)Nc1ccc(OCCN2CCOCC2)c2ccccc12` [Compound 25] has a remaining activity at 10 µM (hMAO-A; Table 3) of 79% and a remaining activity at 10 µM (hMAO-B; Table 3) of 86%.
In the case of `O=C(OCC1CCCN1c1ccnc2ncnn12)c1cccc(CCl)c1` (stereo not drawn) [Compound S7], the “hMAO-A RA [%]” value (hMAO-A; Table S3) is reported as 70% and the “hMAO-B RA [%]” value (hMAO-B; Table S3) is reported as 93%.
With `CNC(=O)c1cc(Oc2ccc(NC(=O)Nc3cc(C(F)(F)F)ccc3-n3cncn3)cc2)ccn1` [Compound 20] the “hMAO-A RA [%]” value (hMAO-A; Table 3) was 60% and the remaining activity at 10 µM (hMAO-B; Table 3) was 99%.
